# Target: T1, autotaxin (Homo sapiens, UniProt Q13822)
# T1 construct: tissue Biocell Laboratories Inc 1121-00; host or cells: human serum (delipidated, dialyzed)
# Experiment: Human Serum Autotaxin Assay (choline release from LPC, TOOS detection)
# Type: biochemical
# Settings: dialyzed human serum; substrate LPC 14:0, 300 μM; 4 hours at 37° C.; choline release read at 555 nm
# Protocol: Human Serum Autotaxin Assay
# Inhibition of autotaxin activity is assayed in human serum by measuring the amount of choline released from the substrate, lysophosphatidylcholine (LPC). […] To assay for autotaxin inhibition, 20 μl of the dialyzed human serum is incubated with 2 μl test compound in DMSO and 73 μl lyso-PLD buffer (100 mM Tris pH 9, 500 mM NaCl, 5 mM MgCl2, 30 μM CoCl2, 0.05% Triton X-100) for 15 minutes at 37° C. […] 100 μl of a color mix which contains 4.5 mM 4-aminoantipyrine, 2.7 mM N-ethyl-N-(2-hydroxy-3-sulfopropyl)-m-toluidine, 21 units/ml Horseradish peroxidase and 3 units/ml choline oxidase in 50 mM Tris, pH 8, 4.5 mM MgCl2 is added and the incubation continued for 15 minutes at room temperature before reading the absorbance at 555 nm. The concentration of released choline in the sample is determined from a choline standard curve and is equal to the concentration of LPA produced.
row,Compound,IC50 [nM]
1,"Cc1[nH]c2cc(Cl)ccc2c1Sc1cncc(C(=O)O)c1 [Compound 1-1, 5-(6-Chloro-2-methyl-1H-indol-3-ylsulfanyl)-nicotinic acid]",> 1000
2,"Cc1c(Sc2cncc(C(=O)O)c2)c2ccc(Cl)cc2n1Cc1ccccc1 [Compound 1-2, 5-(1-Benzyl-6-chloro-2-methyl-1H-indol-3-ylsulfanyl)-nicotinic acid]",> 1000
3,"Cc1c(Sc2cncc(C(=O)O)c2)c2ccc(Cl)cc2n1-c1cnn(C)c1 [Compound 1-3, 5-[6-Chloro-2-methyl-1-(1-methyl-1H-pyrazol-4-yl)-1H-indol-3-ylsulfanyl]-nicotinic acid]",< 300
4,"CCn1cc(-n2c(C)c(Sc3cncc(C(=O)O)c3)c3ccc(Cl)cc32)cn1 [Compound 1-4, 5-[6-Chloro-1-(1-ethyl-1H-pyrazol-4-yl)-2-methyl-1H-indol-3-ylsulfanyl]-nicotinic acid]",< 300
5,"Cc1c(Sc2cncc(C(=O)O)c2)c2ccc(Cl)cc2n1-c1cnn(C(C)C)c1 [Compound 1-5, 5-[6-Chloro-1-(1-isopropyl-1H-pyrazol-4-yl)-2-methyl-1H-indol-3-ylsulfanyl]-nicotinic acid]",< 300
6,"Cc1c(Sc2cc(C(=O)O)ccn2)c2ccc(Cl)cc2n1-c1cnn(C)c1 [Compound 1-6, 2-[6-Chloro-2-methyl-1-(1-methyl-1H-pyrazol-4-yl)-1H-indol-3-ylsulfanyl]-isonicotinic acid]",> 1000
7,"CCn1cc(-n2c(C)c(Sc3cc(C(=O)O)ccn3)c3ccc(Cl)cc32)cn1 [Compound 1-7, 2-[6-Chloro-1-(1-ethyl-1H-pyrazol-4-yl)-2-methyl-1H-indol-3-ylsulfanyl]-isonicotinic acid]",< 300
8,"Cc1c(Sc2cc(C(=O)O)ccn2)c2ccc(Cl)cc2n1-c1cnn(C(C)C)c1 [Compound 1-8, 2-[6-Chloro-1-(1-isopropyl-1H-pyrazol-4-yl)-2-methyl-1H-indol-3-ylsulfanyl]-isonicotinic acid]",300 to 1000

# Continued, values first:
row,IC50 [nM],Compound
1,< 300,"CCn1cc(-n2c(C)c(Sc3cccc(C(=O)O)n3)c3ccc(Cl)cc32)cn1 [Compound 1-9, 6-[6-Chloro-1-(1-ethyl-1H-pyrazol-4-yl)-2-methyl-1H-indol-3-ylsulfanyl]-pyridine-2-carboxylic acid]"
2,< 300,"Cc1c(Sc2cccc(C(=O)O)n2)c2ccc(Cl)cc2n1-c1cnn(C)c1 [Compound 1-10, 6-[6-Chloro-2-methyl-1-(1-methyl-1H-pyrazol-4-yl)-1H-indol-3-ylsulfanyl]-pyridine-2-carboxylic acid]"
3,< 300,"CCCn1cc(-n2c(C)c(Sc3cccc(C(=O)O)n3)c3ccc(Cl)cc32)cn1 [Compound 1-11, 6-[6-Chloro-2-methyl-1-(1-propyl-1H-pyrazol-4-yl)-1H-indol-3-ylsulfanyl]-pyridine-2-carboxylic acid]"
4,< 300,"CCn1cc(-n2c(C)c(Sc3cccc(C(=O)O)n3)c3ccc(Cl)c(F)c32)cn1 [Compound 1-12, 6-[6-Chloro-1-(1-ethyl-1H-pyrazol-4-yl)-7-fluoro-2-methyl-1H-indol-3-ylsulfanyl]-pyridine-2-carboxylic acid]"
5,< 300,"Cc1c(Sc2cccc(C(=O)O)n2)c2ccc(Cl)c(F)c2n1-c1cnn(C(C)C)c1 [Compound 1-13, 6-[6-Chloro-7-fluoro-1-(1-isopropyl-1H-pyrazol-4-yl)-2-methyl-1H-indol-3-ylsulfanyl]-pyridine-2-carboxylic acid]"
6,< 300,"Cc1c(Sc2cccc(C(=O)O)n2)c2ccc(Cl)cc2n1-c1cnn(C(C)C)c1 [Compound 1-14, 6-[6-Chloro-1-(1-isopropyl-1H-pyrazol-4-yl)-2-methyl-1H-indol-3-ylsulfanyl]-pyridine-2-carboxylic acid]"
7,< 300,"CCCn1cc(-n2c(C)c(Sc3cccc(C(=O)O)n3)c3ccc(Cl)c(F)c32)cn1 [Compound 1-15, 6-[6-Chloro-7-fluoro-2-methyl-1-(1-propyl-1H-pyrazol-4-yl)-1H-indol-3-ylsulfanyl]-pyridine-2-carboxylic acid]"
8,< 300,"CCn1cc(-n2c(C)c(Sc3cnn(CC(=O)O)c3)c3ccc(Cl)c(F)c32)cn1 [Compound 1-16, {4-[6-Chloro-1-(1-ethyl-1H-pyrazol-4-yl)-7-fluoro-2-methyl-1H-indol-3-ylsulfanyl]-pyrazol-1-yl}-acetic acid]"
9,< 300,"CCn1cc(-n2c(C)c(Sc3cccc(CC(=O)O)n3)c3ccc(Cl)c(F)c32)cn1 [Compound 1-17, {6-[6-Chloro-1-(1-ethyl-1H-pyrazol-4-yl)-7-fluoro-2-methyl-1H-indol-3-ylsulfanyl]-pyridin-2-yl}-acetic acid]"
10,< 300,"CCCn1cc(-n2c(C)c(Sc3cccc(CC(=O)O)n3)c3ccc(Cl)c(F)c32)cn1 [Compound 1-18, {6-[6-Chloro-7-fluoro-2-methyl-1-(1-propyl-1H-pyrazol-4-yl)-1H-indol-3-ylsulfanyl]-pyridin-2-yl}-acetic acid]"

# — patent publication US9260416B2, “Heterocyclic autotaxin inhibitors and uses thereof” (AMIRA PHARMACEUTICALS, INC., priority 2011, dated 2016)
